Organism: Rattus norvegicus
Assay: Inhibition of rat microsomal SOAT assessed as reduction in cholesteryl oleate formation from oleoyl co-enzyme A at 10 uM pretreated for 15 mins followed by oleoyl co-enzyme A addition measured after 10 mins by HPTLC method relative to control

SMILES | inhibition [%]
CCCCCCCNC(=O)Nc1ccc(-c2sc(C)nc2-c2ccc(C)cc2)cc1 | 33.4
Cc1ccc(-c2nc(NC(=O)Nc3ccccc3)sc2-c2ccc(Cl)cc2)cc1 | 9.58
CCCCCCCNC(=O)Nc1ccc(-c2nonc2-c2ccc(Cl)cc2)cc1 | 4.3
CC(=O)Nc1ccc(-c2sc(NC(=O)Nc3ccc(F)cc3F)nc2-c2ccc(C)cc2)cc1 | 3.06
Cc1ccc(-c2nc(NC(=O)Nc3ccc(F)cc3F)sc2-c2ccc([N+](=O)[O-])cc2)cc1 | 3.86
CCCCNC(=O)Nc1nc(-c2ccc(Cl)cc2)c(-c2ccc(NC(C)=O)cc2)s1 | 3.75
CCCCNC(=O)Nc1nc(-c2ccc(OC)cc2)c(-c2ccc([N+](=O)[O-])cc2)s1 | 3.12
O=C(Nc1nc(-c2ccc(Cl)cc2)c(-c2ccc([N+](=O)[O-])cc2)s1)Nc1ccc(F)cc1F | 3.28
CCCCCCCNC(=O)Nc1ccc(-c2sc(C)nc2-c2ccc(OC)cc2)cc1 | 22.2
O=C(Nc1ccc(-c2nonc2-c2ccc(F)cc2)cc1)Nc1ccc(F)cc1F | 47.1
COc1ccc(-c2nc(C)sc2-c2ccc(NC(=O)Nc3ccc(F)cc3F)cc2)cc1 | 22.3
Cc1nc(-c2ccc(Cl)cc2)c(-c2ccc(NC(=O)Nc3c(C(C)C)cccc3C(C)C)cc2)s1 | 12.6
CCc1cccc(CC)c1NC(=O)Nc1ccc(-c2nonc2-c2ccc(C)cc2)cc1 | 0.34
Cc1ccc(-c2nc(C)sc2-c2ccc(NC(=O)Nc3c(C(C)C)cccc3C(C)C)cc2)cc1 | 11.2
COc1cc(NC(=O)Nc2ccc(-c3sc(C)nc3-c3ccc(C)cc3)cc2)cc(OC)c1OC | 21.9
CCCCCCCCCCCCNC(=O)Nc1nc(-c2ccc(F)cc2)c(-c2ccc(Cl)cc2)s1 | 1.91
Cc1nc(-c2ccc(Cl)cc2)c(-c2ccc(NC(=O)Nc3ccc(F)cc3F)cc2)s1 | 1.3
CCCCCCCCCCCCNc1ccc(-c2sc(NC(=O)Nc3ccc(F)cc3F)nc2-c2ccc(OC)cc2)cc1 | 1.77
CCCCNC(=O)Nc1nc(-c2ccc(F)cc2)c(-c2ccc(NS(C)(=O)=O)cc2)s1 | 0.43
CCCCNC(=O)Nc1nc(-c2ccc(Cl)cc2)c(-c2ccc(NS(C)(=O)=O)cc2)s1 | 5.63
CCCCNC(=O)Nc1nc(-c2ccccc2)c(-c2ccccc2)s1 | 2.56
CCCCCCCCCCCCNC(=O)Nc1ccc(-c2nonc2-c2ccc(Cl)cc2)cc1 | 18.5
CCCCCCCNC(=O)Nc1ccc(-c2nonc2-c2ccc(F)cc2)cc1 | 30.9

SMILES | inhibition [%]
COc1ccc(-c2nc(C)sc2-c2ccc(NC(=O)NCCN3CCOCC3)cc2)cc1 | 21.5
CCCCCCCCCCCCNC(=O)Nc1nc(-c2ccc(Cl)cc2)c(-c2ccc([N+](=O)[O-])cc2)s1 | 1.77
CCCCNC(=O)Nc1nc(-c2ccc(C)cc2)c(-c2ccc([N+](=O)[O-])cc2)s1 | 3.86
COc1ccc(-c2nc(C)sc2-c2ccc(NC(=O)Nc3cc(OC)c(OC)c(OC)c3)cc2)cc1 | 25.4
COc1ccc(-c2nc(C)sc2-c2ccc(NC(=O)Nc3c(C(C)C)cccc3C(C)C)cc2)cc1 | 30.1
CS(=O)(=O)Nc1ccc(-c2sc(NC(=O)Nc3ccc(F)cc3F)nc2-c2ccc(Cl)cc2)cc1 | 6.39
CC(=O)Nc1ccc(-c2sc(NC(=O)Nc3ccc(F)cc3F)nc2-c2ccc(F)cc2)cc1 | 23.3
COc1ccc(-c2nc(NC(=O)Nc3ccc(F)cc3F)sc2-c2ccc([N+](=O)[O-])cc2)cc1 | 3.4
CCCCNC(=O)Nc1nc(-c2ccc(F)cc2)c(-c2ccc(Cl)cc2)s1 | 3.3
CCCCNC(=O)Nc1nc(-c2ccc(F)cc2)c(-c2ccc(NC(C)=O)cc2)s1 | 15.4
CCCCNC(=O)Nc1nc(-c2ccc(OC)cc2)c(-c2ccc(NS(C)(=O)=O)cc2)s1 | 5.45
CCCCCCCCCCCCNC(=O)Nc1nc(-c2ccccc2)c(-c2ccccc2)s1 | 1.2
CCc1cccc(CC)c1NC(=O)Nc1ccc(-c2nonc2-c2ccc(Cl)cc2)cc1 | 8.25
CCc1cccc(CC)c1NC(=O)Nc1nc(-c2ccc(C)cc2)c(-c2ccc(Cl)cc2)s1 | 1.52
CCCCNC(=O)Nc1nc(-c2ccc(OC)cc2)c(-c2ccc(NC(C)C)cc2)s1 | 4.67
COc1ccc(-c2nc(NC(=O)Nc3ccc(F)cc3F)sc2-c2ccc(Cl)cc2)cc1 | 2.98
CC(=O)Nc1ccc(-c2sc(NC(=O)Nc3ccc(F)cc3F)nc2-c2ccc(Cl)cc2)cc1 | 2.03
Cc1nc(-c2ccc(F)cc2)c(-c2ccc(NC(=O)Nc3ccccc3)cc2)s1 | 16.8
CCc1cccc(CC)c1NC(=O)Nc1nc(-c2ccc(C)cc2)c(-c2ccc([N+](=O)[O-])cc2)s1 | 1.03
CCCCCCCCCCCCNC(=O)Nc1ccc(-c2sc(C)nc2-c2ccc(Cl)cc2)cc1 | 5.75
CCCCNC(=O)Nc1nc(-c2ccc(C)cc2)c(-c2ccc(NC(C)=O)cc2)s1 | 5.23
O=C(Nc1nc(-c2ccc(F)cc2)c(-c2ccc([N+](=O)[O-])cc2)s1)Nc1ccc(F)cc1F | 3.59
CCc1cccc(CC)c1NC(=O)Nc1nc(-c2ccc(F)cc2)c(-c2ccc(Cl)cc2)s1 | 1.58

SMILES | inhibition [%]
CCCCCCCNC(=O)Nc1nc(-c2ccc(OC)cc2)c(-c2ccc([N+](=O)[O-])cc2)s1 | 1.52
CCCCNC(=O)Nc1ccc(-c2nonc2-c2ccc(C)cc2)cc1 | 2.83
Cc1ccc(-c2nc(C)sc2-c2ccc(NC(=O)NCCN3CCOCC3)cc2)cc1 | 19
Cc1ccc(-c2nc(NC(=O)Nc3ccc(F)cc3F)sc2-c2ccc(NS(C)(=O)=O)cc2)cc1 | 2.17
O=C(Nc1nc(-c2ccccc2)c(-c2ccccc2)s1)Nc1ccc(F)cc1F | 3.03
CCCCNC(=O)Nc1nc(-c2ccc(Cl)cc2)c(-c2ccc([N+](=O)[O-])cc2)s1 | 3.02
CCCCNC(=O)Nc1nc(-c2ccc(F)cc2)c(-c2ccc([N+](=O)[O-])cc2)s1 | 2.98
Cc1ccc(-c2nc(C)sc2-c2ccc(NC(=O)Nc3ccccc3)cc2)cc1 | 13.4
CCCCCCCCCCCCNC(=O)Nc1ccc(-c2sc(C)nc2-c2ccc(OC)cc2)cc1 | 27.5
CCCCNC(=O)Nc1nc(-c2ccc(C)cc2)c(-c2ccc(NS(C)(=O)=O)cc2)s1 | 32.7
Cc1nc(-c2ccc(F)cc2)c(-c2ccc(NC(=O)NCCN3CCOCC3)cc2)s1 | 29.3
Cc1nc(-c2ccc(Cl)cc2)c(-c2ccc(NC(=O)Nc3ccccc3)cc2)s1 | 6.88
Cc1ccc(-c2nc(C)sc2-c2ccc(NC(=O)Nc3ccc(F)cc3F)cc2)cc1 | 26.6
O=C(Nc1ccc(-c2nonc2-c2ccc(Cl)cc2)cc1)Nc1ccc(F)cc1F | 21.2
CS(=O)(=O)Nc1ccc(-c2sc(NC(=O)Nc3ccc(F)cc3F)nc2-c2ccc(F)cc2)cc1 | 18.9
COc1cc(NC(=O)Nc2ccc(-c3sc(C)nc3-c3ccc(Cl)cc3)cc2)cc(OC)c1OC | 24.4
CCCCNC(=O)Nc1ccc(-c2nonc2-c2ccc(Cl)cc2)cc1 | 23
CCCCNC(=O)Nc1ccc(-c2sc(C)nc2-c2ccc(OC)cc2)cc1 | 40
CCCCCCCNC(=O)Nc1ccc(-c2nonc2-c2ccc(C)cc2)cc1 | 18.6
Cc1ccc(-c2nc(NC(=O)Nc3ccc(F)cc3F)sc2-c2ccc(Cl)cc2)cc1 | 3.93
CCCCCCCCCCCCNc1ccc(-c2sc(NC(=O)NCCCC)nc2-c2ccc(OC)cc2)cc1 | 3.36

From ChEMBL document CHEMBL4049391, “Vicinal diaryl azole-based urea derivatives as potential cholesterol lowering agents acting through inhibition of SOAT enzymes” (Eur J Med Chem, 2017)
